Drawing on ChEMBL document CHEMBL5625273, “Antiproliferative activities through accelerating autophagic flux by basidalin and its analogs in human cancer cells” (Bioorg Med Chem Lett, 2024), this text covers IC50 and Activity for five compounds.

The source made the active and inactive calls. The rule behind the calls is not given here.

Common to all, as to format: functional, cell-based
One experiment deals with PANC-1. The experiment in a line: Antiproliferative activity against human PANC-1 cells by MTT assay.
Another experiment concerns HCT-116. The experiment can be described thus: Antiproliferative activity against human HCT-116 cells by MTT assay.
The subject of another experiment is SK-MEL-28. The experiment in a line: Antiproliferative activity against human SK-MEL-28 cells by MTT assay. Background: Tetrazolium assays rely on reduction of a dye to a coloured formazan, in cell work by metabolically active cells.
The next experiment relates to MCF7. The experiment can be described thus: Antiproliferative activity against human MCF7 cells by MTT assay.
The subject of the next experiment is PC-3. The experiment can be described thus: Antiproliferative activity against human PC-3 cells by MTT assay.
A further experiment has as its system HT-1080. The experiment in a line: Antiproliferative activity against human HT-1080 cells by MTT assay.
For experiment [1], the system named is HeLa. The experiment in a line: Antiproliferative activity against human HeLa cells by MTT assay.
For experiment [2], the system named is HeLa. The experiment in a line: Induction of autophagy in human HeLa cells assessed as increase in LC3-II expression at 100 uM incubated for 24 hrs by Western blot analysis. A general note: A western blot detects proteins with antibodies after separation by electrophoresis.
The test system of experiment [3] is HeLa. The experiment in a line: Effect on p70S6K phosphorylation in human HeLa cells at 100 uM incubated for 24 hrs by Western blot analysis.
Experiment [4] has as its system HeLa. The experiment in a line: Induction of autophagy in human HeLa cells assessed as increase in LC3-II expression incubated for 24 hrs by Western blot analysis. Conditions: dose 1-30 µM.
Experiment [5] has as its system HeLa. The experiment can be described thus: Induction of autophagic flux in human HeLa cells assessed as increase in LC3-II expression at 30 to 100 uM incubated for 24 hrs in presence of E64D by Western blot analysis. Conditions: dose 30-100 µM.
Experiment [6] concerns HeLa. The experiment can be described thus: Induction of autophagic flux in human HeLa cells assessed as increase in LC3-II expression at 30 to 100 uM incubated for 24 hrs in presence of pepA by Western blot analysis. Conditions: dose 30-100 µM.
Experiment [7] concerns SH-SY5Y. The experiment in a line: Induction of autophagic flux in human SH-SY5Y cells expressing GFP-LC3 assessed as increase in LC3 punctae co-localized with LAMP1 at 30 to 100 uM incubated for 24 hrs in presence of E64D. Conditions: dose 30-100 µM.
For experiment [8], the system named is SH-SY5Y. The experiment can be described thus: Induction of autophagic flux in human SH-SY5Y cells expressing GFP-LC3 assessed as increase in LC3 punctae co-localized with LAMP1 at 30 to 100 uM incubated for 24 hrs in presence of pepA. Conditions: dose 30-100 µM.
The test system of experiment [9] is HeLa. The experiment in a line: Effect on p70S6K phosphorylation in human HeLa cells at 1 to 30 uM incubated for 24 hrs by Western blot analysis. Conditions: dose 1-30 µM.

Broadly, the IC50 is the concentration that inhibits the measured activity by half. A low value points to inhibition by little substance. `CC(=O)NC1=CC(=O)O/C1=C/C(OC(C)=O)OC(C)=O`: the IC50 with PANC-1 turned out to be 31.3 µM; with HCT-116, 29.9 µM; with SK-MEL-28, 37.1 µM; with MCF7, 22.4 µM; in the experiment with PC-3, 42.6 µM; in the experiment with HT-1080 it was 40.8 µM. The same compound displayed an IC50 in the experiment with HeLa [1] of 44.8 µM. For the same compound, the result in the experiment with HeLa [2] was Active. Moreover, the outcome with HeLa [3] was inactive.

For `NC1=CC(=O)O/C1=C/CO`, the IC50 with PANC-1, with HCT-116, in the experiment on SK-MEL-28, in the experiment on MCF7, with PC-3 and with HT-1080 was above 100 µM each time. This compound yielded an IC50 in the experiment on HeLa [1] above 100 µM.

Take `NC1=CC(=O)O/C1=C/C=O`: the IC50 in the experiment on PANC-1 amounted to 5.29 µM; in the experiment on HCT-116 it was 5.35 µM; with SK-MEL-28 it was 5.87 µM; in the experiment with MCF7 it was 7.87 µM; in the experiment on PC-3, 9.79 µM; with HT-1080, 11.6 µM. In the experiment with HeLa [1], this compound came in with an IC50 of 15.6 µM. The Activity result in the experiment on HeLa [4] was “Dose-Dependent Effect”. The result in the experiment with HeLa [5], in the experiment on HeLa [6], in the experiment on SH-SY5Y [7] and in the experiment on SH-SY5Y [8] was Active. Besides, the outcome with HeLa [9] was inactive.

Consider `CC(=O)NC1=CC(=O)O/C1=C/C=O`, for which the IC50 is 16.1 µM in the experiment on PANC-1; 27.2 µM in the experiment on HCT-116; 12.3 µM with SK-MEL-28; 38.8 µM with MCF7; 21.7 µM in the experiment on PC-3; 46.1 µM with HT-1080. This compound also came in with an IC50 in the experiment on HeLa [1] of 27.7 µM. Further, the result in the experiment on HeLa [2] was Active. Also, the result in the experiment with HeLa [3] was inactive.

In the case of `NC1=CC(=O)OC1CCO` (stereo not given), the half-inhibitory concentration (IC50) in the experiment with PANC-1, with HCT-116, with SK-MEL-28, in the experiment on MCF7, with PC-3 and with HT-1080 was above 100 µM throughout. The same compound registered an IC50 in the experiment on HeLa [1] above 100 µM.
